Measurements as given in patent EP0936918B1, “COMBINATION THERAPY FOR TREATMENT OF ARTHRITIC DISEASES” (BRITISH BIOTECH PHARMACEUTICALS LIMITED, priority 1996, dated 1998).
One block for each compound: values may come before it.

Tests used:
[1] = system: adjuvant-induced arthritis; test: Rat adjuvant-induced arthritis model; assay type: in vivo, male Lewis rat
Experimental: Mean of 10 readings was recorded.
Drugs were formulated fresh for each administration.

[2] = Ex vivo bioassay of blood concentration after oral administration (fibroblast collagenase / 14C collagen read-out); parameters: species or system male Lewis rats; details: 10mg/kg oral, suspension in PBS/Tween, with versus without CyA (0.3mg/kg); 0.5 to 24 hrs, n=6
Experimental: Compound 1(10mg/kg)±CyA (0.3mg/kg) [in PBS/0.01% Tween 80™] was administered to healthy male Lewis rats (as above). Blood samples (0.5ml into a syringe containing 0.1 ml acid citrate dextroset as anticoagulant) were removed from the ventro-lateral tail vein of the halothane anaestetised rat at t= prebleed, 0.5, 1, 2, 6 and 24 hrs. 3mls methanol was added to each blood sample, mixed and centrifuged at 3000 r.p.m. for 15 minutes (using Beckman GPKR centrifuge). 2.0ml of the methanol supematant was removed and evaporated dry. The pellet was redisolved in 200µl DMSO (dimethylsulphoxide). An aliquot of the solubilised pellet was assayed against fibroblast collagenase using ^14C collagen as substrate, as follows: 15µl fibroblast collagenase at suitable dilution. 100µl collagenase assay buffer* 10µl solubilised pellet 75µl ddH2O 100µl ^14C collagen † Acid citrate dextrose, pH4.5 (13.65g citric acid, 25g tri-sodium citrate & 20g d-glucose per litre of water) * (50mM Tris (pH 7.4), 5mM CaCl2, 0.05% Brij, 0.02% NaN3)
Samples were incubated overnight at 37°C and undigested substrate removed by centrifugation at 11,600 r.p.m. for 15 mins (using Heraeus Biofuge 15). […]
A calibration curve for the test compound of interest was run alongside the blood samples. The concentration of the test compound in the blood was then calculated from the calibration curve.

[3] = Twentyman 1992; cited from earlier work

blood concentration of Compound 1 [2]: equivalent
Compound: C=CC[C@H](C(=O)NO)[C@@H](CC(C)C)C(=O)N[C@H](C(=O)NC)C(C)(C)C [Compound 1, 3R-(2,2-Dimethyl-1S-methylcarbamoyl-propylcarbamoyl)-5-methyl-2S-2-propenyl-hexanohydroxamic acid]
reducing the paw volume (swelling) ([1]; Compound 1 at doses at or below 10mg/kg, po, bid (data not shown)): ineffective
effect on arthritis ([1]; given alone, po, bid: Compound 1 (10mg/ml), Cyclosporin A (0.3mg/ml)): very little or no effect

Compound: CNC(=O)[C@H](Cc1ccccc1)NC(=O)[C@H](CC(C)C)[C@H](CSc1cccs1)C(=O)NO [Compound 2, [4-(N-Hydroxyamino)-2R-isobutyl-3S-(thiophenylthiomethyl)succinyl]-L-phenylalanine-N-methylamide]
synergy with cyclosporin A ([1]; Compound 2 at 5mg/kg ip, bid, with cyclosporin A at 0.3mg/kg ip): act in synergy

Compound: C/C=C/C[C@@H](C)C(=O)[C@H]1C(=O)N[C@@H](C(C)C)C(=O)N(C)CC(=O)N(C)[C@@H](CC(C)C)C(=O)N[C@@H](C(C)C)C(=O)N(C)[C@@H](CC(C)C)C(=O)N[C@@H](C)C(=O)N[C@H](C)C(=O)N(C)[C@@H](CC(C)C)C(=O)N(C)[C@@H](CC(C)C)C(=O)N(C)[C@@H](C(C)C)C(=O)N1C [PSC-833]
potency relative to CyA [3]: approximately 10 fold
